US8828696B2, “Use of Penicillin G Procaine as a selective antimicrobial agent in the production of alcohol by fermentation” (Lallemand Specialites, Inc, priority 2008, dated 2014)
Several values for one entry are separate records, joined by “and”; a condition that tells them apart may be missing. Identical values can stand only once.

What was measured:
contaminating bacteria = experiment: Alcohol production plant trial, fermentor drop data (50 m/g/y dry grind, corn); format: cell-based
Method: This trial was conducted at a 50 million gallon per year (m/g/y) dry grind fuel alcohol production facility utilizing corn as a fermentation substrate. Batch yeast propagation and fermentation process were utilized. Antimicrobials were added to the fermentor during the fill cycle at approximately 30% fill.
No other changes were made to the process or chemical additions that would influence the fermentation kinetics monitored during 3 sets of fermentor batches listed below. The fermentation data was accumulated at the end (drop) of the fermentation process for each of the fermentors. Fermentation kinetics was measured for three batch cycles including:
Set 1—“Pre Penicillin G Procaine trial”-10 fermentor batches using a level of 0.5 ppm Virginiamycin. See results in Table 2.
Set 2—“Penicillin G Procaine trial”-10 fermentor batches using a level of 0.5 ppm of Penicillin G Procaine. See results in Table 3.
Set 3—“Post Penicillin G Procaine trial”-10 fermentor batches using a level of 0.5 ppm of Virginiamycin. See results in Table 4.

Lactobacillus fermentum = experiment: Comparative efficacy analysis Virginiamycin vs. Penicillin G Procaine, growth in MRS broth, 24 well plate; format: cell-based; conditions: industry isolated Lactobacillus fermentum; ppm of the fermentation mixture
Text: The most commonly found microorganism in fuel ethanol producing plants is the Lactobacillus fermentum bacterium and is considered as an “industry normal” bacterium. This example compares the use of a Bactenix® line of products, Penicillin G Procaine-antibiotic versus Virginiamycin-antibiotic to control “industry normal” Lactobacillus fermentum bacterium. This trial uses an alcohol water mixture to assure total dissolving of antibiotics. This assures that the correct concentrations of antibiotics are going into the test wells and thereby preventing under dosing during the trial. All bacteria tested were industry specific isolates that were obtained from actual corn mash samples from fermentation alcohol production plants. The trial was set up as follows: • 1. Dissolve 0.1 g of each of the antibiotics in 1 ml water and then add 5 ml of ethanol, vortex and bring up to 10 ml with sterile water to from a suspension. • 2. Dilute the previous suspension 1:10 with sterile water. This gives a one mg/ml concentration. • 3. Filter the suspension by running through a 0.2 μm syringe filter. • 4. Add four μl broth in a centrifuge then add antibiotics to MRS (DeMan, Rogosa and Sharpe) broth at the concentrations required for the test. • 5. Take four μl of a fresh 24-hour culture of the target organisms and add to the corresponding empty wells in a pre-labeled 24 well tissue culture plate. • 6. Pipette one ml of the appropriate antibiotic media to each well of the plate. • 7. Incubate at 33° C. for 24 hours. • 8. Read plates for bacterial growth and re-incubate the plates at 33° C. • 9. After 48 hours read and report the final results.

[1] = Penicillin G Procaine trial 0.5 ppm compared with Virginiamycin sets
[2] = Set 2 'Penicillin G Procaine trial', 0.5 ppm, 10 Batch average
[3] = Set 2 'Penicillin G Procaine trial', 0.5 ppm, drop data, single fermentor batch

## CC1(C)S[C@@H]2[C@H](NC(=O)Cc3ccccc3)C(=O)N2[C@H]1C(=O)O.CCN(CC)CCOC(=O)c1ccc(N)cc1 [Penicillin G Procaine]
Contaminating bacteria; [1]
  decrease of lactic acid production: about a quarter percent
  increase of ethanol production: about half a percent
  production increase of ethanol per fermentor: about 2,500 gallons
Contaminating bacteria; [2]
  Acetic %: 0.03%
  EtOH v/v %: 15.98 v/v %
  Glucose %: 0.28%
  Lactic %: 0.24%
Contaminating bacteria; [3]
  Acetic %: 0.03% and 0.02% and 0.05% and 0.04%
  Glucose %: 0.28% and 0.30% and 0.27% and 0.29%
  Lactic %: 0.28% and 0.19% and 0.21% and 0.26% and 0.25% and 0.23% and 0.24%
Lactobacillus fermentum
  minimum inhibitory concentration: 0.1 ppm
